{"source": "paper PMC9532703", "about": "“A novel small molecule RK-019 inhibits FGFR2-amplification gastric cancer cell proliferation and induces apoptosis in vitro and in vivo” (Frontiers in Pharmacology, 2022)", "key": {"[1]": {"system": "SNU-16 xenograft", "assay": "Subcutaneous xenograft model", "format": "in vivo, NOD/SCID mice", "experimental": "(§1) NOD/SCID mice (6-week-old, weight 18–20 g, Beijing HJF bioscience) were used in this experiment and maintained in a specific-pathogen-free (SPF) condition facility. SNU-16 Cells were resuspended in PBS mixed with Matrigel (1:1) and adjust the density to 1×10^7 per mice (100 μL). The cell suspensions were inoculated subcutaneously on the right flank of the mice. When the mean tumor volume reached approximately 200 mm^3, the mice were divided into four groups (five mice each group): i. Vehicle group, ii. RK-019 15 mg/kg group, iii. RK-019 30 mg/kg group, and iv. RK-019 45 mg/kg group. RK-019 was dissolved in same formula as the in vivo PK study. RK-019 was administrated once per day by oral gavage for 21 days. Tumor volumes were measured three times per week. The tumor volume was measured by a caliper and calculated according to the following formula: Tumor volume=Major axis×Miner axis^2/2.\n(§2) At the end of administration, the mice were executed euthanasia, then tumors, blood, and organs were extracted. The complete blood count (CBC), serum phosphorus analysis, and blood biochemical analysis were completed by West China Frontier Pharma Tech (Chengdu, China). The pathological section and IHC stanning was completed by Servicebio (Wuhan, China). The tumor growth inhibition (TGI) values were calculated with the following formula: TGI=(1−Tn−T0/Cn−C0)×100%.\nTn and T0 represent average tumor volume before treatment and that of day n after treatment in the treatment group. Cn and C0 represent average tumor volume before treatment and that of day n after treatment in the vehicle group. In this study, n is 21st day."}, "[2]": {"system": "CK1(y)", "assay": "Kinase selectivity panel", "format": "biochemical, yeast", "details": "read-out: Inhibition(%) @ 1 µM RK-019", "experimental": "Median-inhibitory concentration (IC50) and inhibition ratio of kinases by RK-019 was assessed by Eurofins Discovery Services (Dundee, United Kingdom) using the ATP-site competition binding assay in vitro. Firstly, gradient concentration of RK-019 against FGFRs, including FGFR1, FGFR2, FGFR3, and FGFR4, were tested. IC50 value was calculate by the GraphPad Prism software (v8.4.3, GraphPad Software, California, United States). Then, to measure the selectivity prolife of RK-019, a panel of 422 recombinant human kinases was screened at a concentration of 1 µM RK-019. Kinase MAP was drawn by webtools from Cell Signaling Technology, Inc. (www.cellsignal.com)."}, "[3]": {"assay": "Preliminary toxicity in the xenograft mice model", "format": "in vivo, NOD/SCID mice", "experimental": "as §1, §2"}, "[4]": {"assay": "In vivo PK assay", "design": "species or system Sprague-Dawley rats", "details": "rats", "experimental": "All animal experiments in this study have been approved by the Institutional Animal Care and Treatment Committee of Sichuan University in China and were carried out in accordance with the approved guidelines. Sprague-Dawley rats (weight 180–200 g, Beijing HJF bioscience, Beijing, China) were used in this experiment and maintained in a specific-pathogen-free (SPF) condition facility. RK-019 was dissolve in ethanol first, followed by mixed with Kolliphor EL, then filled with saline to the calculated volume. The formula was 12.5% ethanol, 12.5% Kolliphor EL, and 75% saline. RK-019 was administrated via i. v. 3 mg/kg or p. o. 30 mg/kg. After 5, 10, 15, 30, 60, 120, 240, 360, 600, and 1,440 min of administration, the blood samples were collected. Plasma fraction was obtained by centrifuged blood, then deproteinized with methanol containing an internal standard. The compound concentrations of the target compound in the supernatant were measured by liquid chromatography–mass spectrometry/mass spectrometry (LC-MS/MS)."}, "[5]": {"target": "T1, FGFR4(h) (Homo sapiens, UniProt P22455)", "T1 construct": "purchased Eurofins Discovery Services (KinaseProfiler)", "T1 sequence (P22455 22-802)": "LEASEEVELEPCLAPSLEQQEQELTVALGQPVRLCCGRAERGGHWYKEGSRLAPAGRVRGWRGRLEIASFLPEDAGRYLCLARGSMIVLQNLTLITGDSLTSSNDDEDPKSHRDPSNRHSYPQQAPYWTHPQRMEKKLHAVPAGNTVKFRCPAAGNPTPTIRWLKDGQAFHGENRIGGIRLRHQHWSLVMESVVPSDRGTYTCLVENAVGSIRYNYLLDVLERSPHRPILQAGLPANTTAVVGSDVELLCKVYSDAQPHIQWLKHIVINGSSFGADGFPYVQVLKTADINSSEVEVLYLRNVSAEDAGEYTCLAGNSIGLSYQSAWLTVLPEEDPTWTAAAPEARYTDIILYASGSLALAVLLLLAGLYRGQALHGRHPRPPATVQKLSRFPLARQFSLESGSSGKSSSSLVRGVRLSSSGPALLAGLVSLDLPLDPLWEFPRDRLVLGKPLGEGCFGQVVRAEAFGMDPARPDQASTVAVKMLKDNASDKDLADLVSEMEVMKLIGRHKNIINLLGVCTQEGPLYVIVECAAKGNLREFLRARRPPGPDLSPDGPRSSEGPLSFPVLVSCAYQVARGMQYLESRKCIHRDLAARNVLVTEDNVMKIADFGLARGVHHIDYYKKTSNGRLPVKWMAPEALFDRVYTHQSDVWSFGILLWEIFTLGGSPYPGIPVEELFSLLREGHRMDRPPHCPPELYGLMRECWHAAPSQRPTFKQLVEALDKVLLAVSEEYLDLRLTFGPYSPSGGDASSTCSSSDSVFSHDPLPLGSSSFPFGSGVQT", "assay": "Kinase selectivity panel", "format": "biochemical", "how_it_was_run": "(§3)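 Selectivity profiling used one concentration (1 µM) in an ATP-site competition binding assay over 422 recombinant human kinases; data given as inhibition ratio.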"}, "[6]": {"target": "T2, Flt4(h) (Homo sapiens, UniProt P35916)", "T2 construct": "purchased Eurofins Discovery Services (KinaseProfiler)", "T2 sequence (P35916 25-1363)": "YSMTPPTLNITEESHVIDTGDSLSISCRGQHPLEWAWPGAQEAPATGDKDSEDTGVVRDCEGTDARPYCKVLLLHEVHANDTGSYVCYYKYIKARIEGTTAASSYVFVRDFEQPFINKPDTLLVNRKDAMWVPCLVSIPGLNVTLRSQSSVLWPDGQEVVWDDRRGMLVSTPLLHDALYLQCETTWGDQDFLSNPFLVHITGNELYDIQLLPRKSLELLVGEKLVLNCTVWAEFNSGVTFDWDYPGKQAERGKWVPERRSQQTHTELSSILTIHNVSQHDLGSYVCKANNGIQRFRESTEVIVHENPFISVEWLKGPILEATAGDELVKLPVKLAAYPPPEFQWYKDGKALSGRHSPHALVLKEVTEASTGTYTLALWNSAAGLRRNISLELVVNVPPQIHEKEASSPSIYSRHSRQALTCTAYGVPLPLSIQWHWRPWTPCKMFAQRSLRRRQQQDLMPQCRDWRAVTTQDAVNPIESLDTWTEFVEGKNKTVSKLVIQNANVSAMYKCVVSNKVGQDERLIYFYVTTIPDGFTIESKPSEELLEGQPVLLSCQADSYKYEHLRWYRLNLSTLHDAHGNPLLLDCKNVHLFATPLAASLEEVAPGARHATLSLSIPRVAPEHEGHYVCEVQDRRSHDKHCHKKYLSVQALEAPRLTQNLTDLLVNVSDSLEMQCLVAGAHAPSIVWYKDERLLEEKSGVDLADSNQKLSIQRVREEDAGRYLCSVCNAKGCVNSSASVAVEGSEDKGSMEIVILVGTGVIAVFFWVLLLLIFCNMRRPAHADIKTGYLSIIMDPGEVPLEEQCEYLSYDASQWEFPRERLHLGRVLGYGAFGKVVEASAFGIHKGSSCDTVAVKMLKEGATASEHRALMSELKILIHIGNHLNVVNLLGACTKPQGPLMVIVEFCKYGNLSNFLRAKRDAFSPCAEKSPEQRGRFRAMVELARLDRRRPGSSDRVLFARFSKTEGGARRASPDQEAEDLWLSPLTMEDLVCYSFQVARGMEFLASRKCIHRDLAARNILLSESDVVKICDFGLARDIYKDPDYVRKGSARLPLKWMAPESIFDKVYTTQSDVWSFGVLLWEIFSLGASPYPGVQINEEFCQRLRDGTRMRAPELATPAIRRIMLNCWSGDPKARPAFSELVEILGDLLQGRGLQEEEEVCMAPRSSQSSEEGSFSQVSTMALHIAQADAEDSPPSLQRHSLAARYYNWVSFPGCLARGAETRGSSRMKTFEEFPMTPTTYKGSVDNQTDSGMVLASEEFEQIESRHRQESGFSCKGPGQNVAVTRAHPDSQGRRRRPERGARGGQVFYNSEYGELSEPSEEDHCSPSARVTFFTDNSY", "assay": "Kinase selectivity panel", "format": "biochemical", "how_it_was_run": "as §3"}, "[7]": {"target": "T3, PI3 Kinase (p110d/p85a)(m) (Mus musculus, UniProt O35904)", "T3 construct": "purchased Eurofins Discovery Services (KinaseProfiler)", "assay": "Kinase selectivity panel", "format": "biochemical", "details": "read-out: Inhibition(%) @ 1 µM RK-019"}, "[8]": {"target": "T4, EphB3(h) (Homo sapiens, UniProt P54753)", "T4 construct": "purchased Eurofins Discovery Services (KinaseProfiler)", "assay": "Kinase selectivity panel", "format": "biochemical", "details": "read-out: Inhibition(%) @ 1 µM RK-019", "how_it_was_run": "as §3"}, "[9]": {"target": "T5, Wee1(h) (Homo sapiens, UniProt P30291)", "T5 construct": "purchased Eurofins Discovery Services (KinaseProfiler)", "assay": "Kinase selectivity panel", "format": "biochemical", "details": "read-out: Inhibition(%) @ 1 µM RK-019", "how_it_was_run": "as §3"}, "[10]": {"target": "T6, Abl(h) (Homo sapiens, UniProt P00519)", "T6 construct": "purchased Eurofins Discovery Services (KinaseProfiler)", "assay": "Kinase selectivity panel", "format": "biochemical", "details": "read-out: Inhibition(%) @ 1 µM RK-019", "how_it_was_run": "as §3"}, "[11]": {"target": "T7, LTK(h) (Homo sapiens, UniProt P29376)", "T7 construct": "purchased Eurofins Discovery Services (KinaseProfiler)", "assay": "Kinase selectivity panel", "format": "biochemical", "details": "read-out: Inhibition(%) @ 1 µM RK-019", "how_it_was_run": "as §3"}, "[12]": {"target": "T8, ChaK1(h) (Homo sapiens, UniProt Q96QT4)", "T8 construct": "purchased Eurofins Discovery Services (KinaseProfiler)", "assay": "Kinase selectivity panel", "format": "biochemical", "details": "read-out: Inhibition(%) @ 1 µM RK-019", "how_it_was_run": "as §3"}, "[13]": {"target": "T9, cKit(D816H)(h) (Homo sapiens, UniProt P10721, D816H)", "T9 construct": "purchased Eurofins Discovery Services (KinaseProfiler)", "T9 sequence (P10721 26-976 D816H)": "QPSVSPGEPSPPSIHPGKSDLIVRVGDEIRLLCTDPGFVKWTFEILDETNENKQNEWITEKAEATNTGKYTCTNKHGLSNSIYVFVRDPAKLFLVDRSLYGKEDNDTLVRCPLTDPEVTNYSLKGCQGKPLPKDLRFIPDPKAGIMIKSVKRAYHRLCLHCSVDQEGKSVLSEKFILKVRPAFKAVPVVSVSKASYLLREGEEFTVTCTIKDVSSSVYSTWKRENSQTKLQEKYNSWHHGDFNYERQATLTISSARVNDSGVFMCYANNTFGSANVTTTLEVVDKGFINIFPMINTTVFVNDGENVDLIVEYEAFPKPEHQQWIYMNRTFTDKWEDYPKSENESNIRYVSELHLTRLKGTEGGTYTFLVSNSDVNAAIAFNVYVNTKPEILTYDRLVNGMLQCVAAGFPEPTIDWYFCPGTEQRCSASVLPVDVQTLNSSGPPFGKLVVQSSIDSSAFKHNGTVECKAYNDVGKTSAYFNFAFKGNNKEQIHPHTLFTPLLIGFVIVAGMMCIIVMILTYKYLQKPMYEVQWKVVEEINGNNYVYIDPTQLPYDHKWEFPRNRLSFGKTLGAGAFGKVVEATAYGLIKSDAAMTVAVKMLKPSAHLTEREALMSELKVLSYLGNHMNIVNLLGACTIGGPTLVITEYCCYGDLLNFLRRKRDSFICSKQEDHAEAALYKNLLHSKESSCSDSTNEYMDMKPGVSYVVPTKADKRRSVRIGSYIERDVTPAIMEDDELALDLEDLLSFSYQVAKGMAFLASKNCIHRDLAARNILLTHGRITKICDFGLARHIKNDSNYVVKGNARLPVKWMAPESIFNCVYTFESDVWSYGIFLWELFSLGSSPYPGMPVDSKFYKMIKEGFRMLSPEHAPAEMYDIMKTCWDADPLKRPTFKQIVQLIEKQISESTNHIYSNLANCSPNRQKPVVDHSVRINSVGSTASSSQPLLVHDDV", "assay": "Kinase selectivity panel", "format": "biochemical", "details": "read-out: Inhibition(%) @ 1 µM RK-019", "how_it_was_run": "as §3"}, "[14]": {"target": "T10, Rsk3(h) (Homo sapiens, UniProt Q15349)", "T10 construct": "purchased Eurofins Discovery Services (KinaseProfiler)", "assay": "Kinase selectivity panel", "format": "biochemical", "details": "read-out: Inhibition(%) @ 1 µM RK-019", "how_it_was_run": "as §3"}, "[15]": {"target": "T11, DAPK1(h) (Homo sapiens, UniProt P53355)", "T11 construct": "purchased Eurofins Discovery Services (KinaseProfiler)", "T11 sequence (P53355 whole entry)": "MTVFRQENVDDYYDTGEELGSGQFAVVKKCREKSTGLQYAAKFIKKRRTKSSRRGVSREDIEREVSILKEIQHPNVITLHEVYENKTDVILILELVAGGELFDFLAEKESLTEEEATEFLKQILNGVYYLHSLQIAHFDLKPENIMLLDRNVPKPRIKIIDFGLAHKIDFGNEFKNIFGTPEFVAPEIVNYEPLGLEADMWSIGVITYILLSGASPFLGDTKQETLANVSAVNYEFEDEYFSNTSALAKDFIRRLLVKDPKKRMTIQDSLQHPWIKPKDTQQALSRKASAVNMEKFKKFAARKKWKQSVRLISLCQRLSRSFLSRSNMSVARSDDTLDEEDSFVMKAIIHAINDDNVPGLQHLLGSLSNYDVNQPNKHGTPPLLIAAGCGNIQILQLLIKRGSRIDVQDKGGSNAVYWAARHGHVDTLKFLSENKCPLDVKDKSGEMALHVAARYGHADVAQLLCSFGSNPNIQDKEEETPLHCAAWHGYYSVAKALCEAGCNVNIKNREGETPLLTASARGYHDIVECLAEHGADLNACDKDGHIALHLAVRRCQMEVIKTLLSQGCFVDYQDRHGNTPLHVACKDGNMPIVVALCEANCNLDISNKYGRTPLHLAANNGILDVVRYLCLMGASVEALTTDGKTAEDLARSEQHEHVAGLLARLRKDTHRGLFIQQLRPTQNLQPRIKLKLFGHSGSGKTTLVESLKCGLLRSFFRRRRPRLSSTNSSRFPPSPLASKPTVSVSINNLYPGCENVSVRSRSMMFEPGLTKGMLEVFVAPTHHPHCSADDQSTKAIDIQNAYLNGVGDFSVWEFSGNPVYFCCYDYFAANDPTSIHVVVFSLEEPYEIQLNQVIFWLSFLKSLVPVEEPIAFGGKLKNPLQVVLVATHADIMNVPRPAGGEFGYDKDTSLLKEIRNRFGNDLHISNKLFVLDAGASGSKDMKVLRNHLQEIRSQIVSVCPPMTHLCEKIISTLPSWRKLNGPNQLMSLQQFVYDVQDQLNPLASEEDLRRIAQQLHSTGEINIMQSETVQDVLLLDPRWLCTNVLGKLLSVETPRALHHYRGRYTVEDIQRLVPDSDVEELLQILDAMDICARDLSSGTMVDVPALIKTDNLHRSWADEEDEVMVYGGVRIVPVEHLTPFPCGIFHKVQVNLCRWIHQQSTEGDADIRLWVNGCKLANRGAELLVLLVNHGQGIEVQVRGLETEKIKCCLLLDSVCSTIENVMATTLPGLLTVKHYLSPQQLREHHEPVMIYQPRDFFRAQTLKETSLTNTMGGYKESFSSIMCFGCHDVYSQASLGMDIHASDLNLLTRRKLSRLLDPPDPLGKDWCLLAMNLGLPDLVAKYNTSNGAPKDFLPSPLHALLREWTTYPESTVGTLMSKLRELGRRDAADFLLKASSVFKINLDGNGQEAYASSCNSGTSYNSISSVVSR", "assay": "Kinase selectivity panel", "format": "biochemical", "details": "read-out: Inhibition(%) @ 1 µM RK-019", "how_it_was_run": "as §3"}, "[16]": {"target": "T12, CaMKIß(h) (Homo sapiens, UniProt Q6P2M8)", "T12 construct": "purchased Eurofins Discovery Services (KinaseProfiler)", "T12 sequence (Q6P2M8 whole entry)": "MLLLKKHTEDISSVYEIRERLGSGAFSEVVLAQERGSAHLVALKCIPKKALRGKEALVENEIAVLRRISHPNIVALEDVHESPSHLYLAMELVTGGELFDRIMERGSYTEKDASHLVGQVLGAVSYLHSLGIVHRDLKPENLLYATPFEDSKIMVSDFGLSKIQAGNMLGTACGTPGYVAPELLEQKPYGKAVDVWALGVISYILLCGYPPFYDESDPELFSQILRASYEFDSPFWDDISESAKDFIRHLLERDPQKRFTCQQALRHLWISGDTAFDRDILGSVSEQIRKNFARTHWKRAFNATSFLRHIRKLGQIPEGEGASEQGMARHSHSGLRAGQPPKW", "assay": "Kinase selectivity panel", "format": "biochemical", "details": "read-out: Inhibition(%) @ 1 µM RK-019", "how_it_was_run": "as §3"}, "[17]": {"target": "T13, TAO3(h) (Homo sapiens, UniProt Q9H2K8)", "T13 construct": "purchased Eurofins Discovery Services (KinaseProfiler)", "assay": "Kinase selectivity panel", "format": "biochemical", "details": "read-out: Inhibition(%) @ 1 µM RK-019", "how_it_was_run": "as §3"}, "[18]": {"details": "Sprague-Dawley, rat, plasma, iv, 3 mg/kg i.v"}, "[19]": {"details": "Sprague-Dawley, rat, plasma, po, 30 mg/kg p.o"}}, "data": [{"smiles": "COc1cc(OC)cc(N(CCN[C@H](C)CO)c2ccc3ncc(-c4cnn(C)c4)c(=O)n3c2)c1", "note": "[RK-019, (R)-7-((3,5-dimethoxyphenyl) (2-((1-hydroxypropan-2-yl)amino)ethyl)amino)-3-(1-methyl-1H-pyrazol-4-yl)-4H-pyrido [1,2-a]pyrimidin-4-one]", "values": [{"measurement": "TGI", "setting": "[1]; 15 mg/kg oral once a day, 21 days", "value": 34.3, "unit": "%"}, {"measurement": "TGI", "setting": "[1]; 30 mg/kg oral once a day, 21 days", "value": 85.9, "unit": "%"}, {"measurement": "TGI", "setting": "[1]; 45 mg/kg oral once a day, 21 days", "value": 83.5, "unit": "%"}, {"measurement": "tumor weight", "setting": "[1]; RK-019-treated group vs vehicle group, 21 days", "value": "significant decrease"}, {"measurement": "number of cleaved-caspase 3-positive cells (IHC of tumor tissue)", "setting": "[1]; after 21 days treatment", "value": "increased significantly"}, {"measurement": "number of p-FGFR2-positive and Ki67-positive cells (IHC of tumor tissue)", "setting": "[1]; after 21 days treatment", "value": "decreased"}, {"measurement": "activity", "setting": "[2]", "value": 94, "unit": "%"}, {"measurement": "body weight change", "setting": "[3]; during 21 days treatment, 15-45 mg/kg oral", "value": "no significant body weight change"}, {"measurement": "hematopoietic toxicity", "setting": "[3]; end of 21 days treatment", "value": "absent"}, {"measurement": "pathological changes in harvested organs (H&E)", "setting": "[3]; end of 21 days treatment", "value": "no pathological changes"}, {"measurement": "AUC(0-t)", "setting": "[4]; [18]", "value": "0.763 ± 0.0508", "unit": "µg·h/mL"}, {"measurement": "Cmax", "setting": "[4]; [18]", "value": "0.461 ± 0.0478", "unit": "µg/mL"}, {"measurement": "MRT", "setting": "[4]; [18]", "value": "1.64 ± 0.19", "unit": "h"}, {"measurement": "half-life", "setting": "[4]; [18]", "value": "1.58 ± 0.29", "unit": "h"}, {"measurement": "AUC(0-t)", "setting": "[4]; [19]", "value": 1.45, "unit": "µg·h/mL"}, {"measurement": "Cmax", "setting": "[4]; [19]", "value": "0.235 ± 0.0778", "unit": "µg/mL"}, {"measurement": "MRT", "setting": "[4]; [19]", "value": "4.49 ± 1.19", "unit": "h"}, {"measurement": "Tmax", "setting": "[4]; [19]", "value": "2.67 ± 2.89", "unit": "h"}, {"measurement": "half-life", "setting": "[4]; [19]", "value": "2.83 ± 0.37", "unit": "h"}, {"measurement": "F% (oral relative bioavailability)", "setting": "[4]; 30 mg/kg p.o", "value": 19.00, "unit": "%"}, {"measurement": "activity at 1 µM", "setting": "[5]; FGFR4(h), read-out: Inhibition(%) @ 1 µM RK-019", "value": 5, "unit": "%"}, {"measurement": "inhibition at 1 µM", "setting": "[5]; FGFR4, 1 µM, read-out: inhibition (hit in panel)", "value": "> 90", "unit": "%"}, {"measurement": "inhibition at 1 µM", "setting": "[6]; FLT4, 1 µM, read-out: inhibition (hit in panel)", "value": "> 90", "unit": "%"}, {"measurement": "activity at 1 µM", "setting": "[6]; Flt4(h), read-out: Inhibition(%) @ 1 µM RK-019", "value": 3, "unit": "%"}, {"measurement": "activity at 1 µM", "setting": "[7]", "value": 98, "unit": "%"}, {"measurement": "activity at 1 µM", "setting": "[8]", "value": 89, "unit": "%"}, {"measurement": "activity at 1 µM", "setting": "[9]", "value": 92, "unit": "%"}, {"measurement": "activity at 1 µM", "setting": "[10]", "value": 40, "unit": "%"}, {"measurement": "activity at 1 µM", "setting": "[11]", "value": 101, "unit": "%"}, {"measurement": "activity at 1 µM", "setting": "[12]", "value": 100, "unit": "%"}, {"measurement": "activity at 1 µM", "setting": "[13]", "value": 58, "unit": "%"}, {"measurement": "activity at 1 µM", "setting": "[14]", "value": 100, "unit": "%"}, {"measurement": "activity at 1 µM", "setting": "[15]", "value": 100, "unit": "%"}, {"measurement": "activity at 1 µM", "setting": "[16]", "value": 97, "unit": "%"}, {"measurement": "activity at 1 µM", "setting": "[17]", "value": 100, "unit": "%"}]}]}
